{"source": "patent US20100092539A1", "about": "“Fluorinated GHRH Antagonists” (priority 2008, published 2010)", "system": "PC-3 human hormone-independent prostate cancer", "assay": "Effect of treatment with GH-RH antagonists on PC-3 human prostate cancer xenografts in nude mice", "assay_type": "in vivo", "conditions": "PC-3 xenografts s.c. in male nude mice, 2 ug/day s.c., single daily injections for 28", "experimental": "Male nude mice were implanted s.c. with 3 mm3 pieces of PC-3 human hormone-independent prostate cancer tissue on both flanks. When tumors reached a volume of approximately 50 mm3, the mice were divided into 14 experimental groups with 8 to 10 animals in each group and received single daily injections for 28 as follows: 1. Control (vehicle solution); 2. P-12211 (2 μg/day s.c.); 3. P-12307 (2 μg/day s.c.); 4. P-12317 (2 μg/day s.c.); 5. P-12408 (2 μg/day s.c.); 6. P-12409 (2 μg/day s.c.); 7. P-12457 (2 μg/day s.c.); 8. P-12473 (2 μg/day s.c.); 9. P-12479 (2 μg/day s.c.); 10. P-12600 (2 μg/day s.c.); 11. P-12601 (2 μg/day s.c.); 12. P-12602 (2 μg/day s.c.); 13. P-12603 (2 μg/day s.c.); and 14. P-12610 (2 μg/day s.c.).\nEffect of Treatment with GH-RH Antagonists on PC-3 Human Prostate Cancer Xenografts in Nude Mice", "data": [{"substance": "[PhAc^0-Tyr^1, D-Arg^2, Cpa^6, Ala^8, Har^9, Fpa5^10, His^11, Orn^12, Abu^15, His^20, Orn^21, Nle^27, D-Arg^28, Har^29, Ada^30]hGH-RH(1-30)NH2 [Peptide P-12610]", "values": [{"measurement": "Tumor Growth after 4 weeks (%)", "setting": "control 2137.62", "result": 474.98, "unit": "%"}, {"measurement": "Tumor growth inhibition after 4 weeks (%)", "setting": "versus control", "result": 77.78, "unit": "%"}]}]}
